Measurements reported in paper PMC10808720 (Frontiers in Pharmacology, 2024).

Experiments:
HCMV = experiment: Impact on HCMV replication (qPCR of HCMV DNA in HFF); assay type: cell-based, human cytomegalovirus; settings: 2-fold IC50 (HAdV plaque assay), 72 h
Method: To test the anti-HCMV activity of these rotenolone-related compounds, human foreskin fibroblasts (HFF; ATCC, Manassas, VA) were seeded in a 24-well plate (8.3 × 10^4 cells/well), infected with HCMV (MOI 0.05 vp/cell), and incubated in complete DMEM in the presence of either 2-fold IC50 concentration of each compound obtained in the plaque assay against HAdV or the same volume of DMSO (positive control) in duplicate. The cells were incubated for 72 h at 37°C and 5% CO2 and HCMV DNA was purified from the cell lysate using E.Z.N.A Tissue DNA Kit (Omega Biotek, Norcross, GA, USA) following the manufacturer’s instructions. The qPCR primers, conditions, and protocols were the same as previously reported ([Mazzotta et al., 2020b]).

HAdV5 = experiment: HAdV-mediated endosome disruption (α-sarcin co-delivery, HPG incorporation); assay type: cell-based, human adenovirus (HAdV5)
Method: A549 cells (2 × 10^4 cells/well) were incubated in DMEM without cysteine or methionine supplemented with 10% dialyzed FBS [DMEM(−)] in black 96-well plates for 1 h prior to infection. Three-fold serial dilutions (0.45 ng–1,000 ng) of HAdV5, or AdV2ts1 were preincubated with cells in the presence of 10-fold IC50 concentration of the compounds obtained in the plaque assay or the same volume of DMSO for positive control for 1 h. The medium was then removed and replaced with 50 μL DMEM(−) containing 0.1 mg/ml α-sarcin (Santa Cruz Biotechnology, Dallas, Texas, USA) and drug mixtures. After 1 h at 37°C, the Click-iT L-homopropargylglycine (HPG) Alexa Fluor 488 Protein Synthesis Assay Kits (Invitrogen) was used to analyse protein synthesis according to the manufacturer’s instructions. The incorporation of the amino acid analogue of methionine HPG containing Alexa Fluor 488 azide was measured using a Typhoon 9410 imager (GE Healthcare Life Sciences) and calculated by subtracting the background level of the control well containing HPG and α-sarcin but not the virus (100% incorporation).

wild-type HAdV5 = experiment: HAdV DNA quantification by qPCR; assay type: cell-based, human adenovirus (HAdV5); settings: 10-fold IC50; A549; 24 h; vs DMSO control
Method: For DNA quantification, A549 cells (1.5 × 10^5 cells/well in a 24-well plate) were incubated for 24 h in 500 μL of complete DMEM and were infected with wild-type HAdV5 (MOI 100 vp/cell) after observing more than 90% of confluency. Infected cells were incubated for 24 h at 37°C in 500 μL of either complete DMEM containing 10-fold IC50 concentration of the compounds obtained in the plaque assay or the same volume of DMSO (positive control). All samples were prepared in duplicate. After 24 h of incubation at 37°C, DNA was purified from the cell lysate with the E.Z.N.A.® Tissue DNA Kit (Omega Bio-tek, Norcross, GA) following the manufacturer’s instructions. PCR conditions, primers, and probes were as described by [Henke-Gendo et al. (2012)]. Human glyceraldehyde-3-phosphate dehydrogenase (GAPDH) gene was used as an internal control. GAPDH oligonucleotide sequences and conditions were as previously described by [Rivera et al. (2004)].
For quantification, gene fragments from hexons, and GAPDH were cloned into the pGEM-T Easy vector (Promega) and known concentrations of the template were used to generate a standard curve in parallel for each experiment, as previously reported ([Sanchez-Cespedes et al., 2016]). All assays were performed in thermal cycler LightCycler® 96 System (Roche).

C=C(C)[C@H]1Cc2c(ccc3c2O[C@@H]2COc4cc(OC)c(OC)cc4[C@@H]2C3=O)O1 [Rotenone, (2R,6aS,12aS)-8,9-dimethoxy-2-(prop-1-en-2-yl)-1,2,12,12a-tetrahydrochromeno[3,4-b]furo[2,3-h]chromen-6-(6aH)-one]
inhibition of HCMV replication (HCMV): 92.1%
HPG incorporation (HAdV5; compared with a control without α-sarcin, 10-fold IC50, independent of virus concentration): approximately 30%
attenuation of HAdV-mediated endosomolysis (HAdV5; α-sarcin assay): did not attenuate
HAdV DNA copy number (de novo synthesis) (wild-type HAdV5): significant decrease
